Laboratory results from publication PMC12006171, “Marsupial cathelicidins: characterization, antimicrobial activity and evolution in this unique mammalian lineage” (Frontiers in Immunology, 2025).
Read-outs that look alike come from different tables or passages of the source. Where a SMILES comes first, the peptide text is derived from it.

Assays:
Chlamydia = conditions: in vitro; cited from earlier work
From the text: Many marsupial and monotreme cathelicidins were closely related to the classic cathelicidins found in eutherians. These cathelicidins sit within clade II in the phylogenetic tree, sister to eutherians but were not orthologous ( Figure 3 ). Classic marsupial cathelicidins were encoded in cluster A in the genome of all marsupials and monotremes studied, syntenic to the single cathelicidin gene/cluster in eutherians ( Figure 2 ). Many of these were antimicrobial and bactericidal, with MICs equal to or less than eutherian peptides such as cow BMAP-27 and -28 ([87]) and human LL-37, including again ...

[1] = test system: six bacteria (S. aureus, E. coli, P. aeruginosa; ATCC and clinical isolate); design: method as in 4 sources, ref Peel et al 2016 ||| ref Peel et al 2021 ||| ref Wang et al 2011 ||| ref Peel et al 2017; conditions: mature peptide; Y/N summary from earlier study; ref Peel et al 2021; cited from earlier work
[2] = test system: three fungi (Candida krusei, Candida parapsilosis, Candida albicans); design: method as in 4 sources, ref Peel et al 2016 ||| ref Peel et al 2021 ||| ref Wang et al 2011 ||| ref Peel et al 2017; conditions: mature peptide; Y/N summary from earlier study; ref Peel et al 2021; cited from earlier work
[3] = test system: six bacteria (S. aureus, E. coli, P. aeruginosa; ATCC and clinical isolate); format: cell-based; conditions: synthesized mature peptide
Outline: (§1)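 CLSI broth microdilution, MHB ± cations ± 10% lysed horse blood; peptide 64-0.125μg/mL final, duplicates; 5 x 10^5 CFU/mL; 35°C, 20–24 h; MIC = no visible growth.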

[4] = test system: Streptococcus agalactiae Clinical isolate - animal; assay: microbe, parasite or virus in culture; format: cell-based; conditions: clinical isolate - animal; read-out: MIC S. agalactiae
Outline: (§2)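 Broth microdilution per CLSI M07-A/M26A; cathelicidin peptides tested at final 64-0.125μg/mL, inoculum 5 x 10^5 CFU/mL, 35°C for 20–24 hours. Bacteria in MHB (±10% lysed horse blood, ±Ca/Mg), yeasts in RPMI-1640 MOPS. MIC = lowest concentration preventing visible growth.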

[5] = test system: Streptococcus agalactiae ATCC 12386; assay: microbe, parasite or virus in culture; format: cell-based; conditions: ATCC 12386; read-out: MIC S. agalactiae ATCC
Outline: as §2

[6] = test system: Streptococcus pneumoniae ATCC 49619; assay: microbe, parasite or virus in culture; format: cell-based; conditions: ATCC 49619; read-out: MIC S. pneumoniae ATCC
Outline: as §2

[7] = test system: three fungi (Candida krusei, Candida parapsilosis, Candida albicans); assay: Antifungal screening, summary over the panel of fungi (broth microdilution); format: cell-based; conditions: synthesized mature peptide
Outline: as §2

[8] = test system: panel of 11 bacteria and three fungi; assay: Antimicrobial screening phases I and II, summary over all strains; format: cell-based; conditions: active = MIC ≤64µg/mL against the strains tested
Method: Antimicrobial testing of 78 cathelicidin MPs was performed in two phases as outlined in Figure 1 . In phase I, 40 peptides (27 extant and 13 ancestral) were selected for testing based on rank (outlined above) and similarity to published marsupial cathelicidins with known antimicrobial activity ([33], [41]–[43]). These peptides were tested against nine bacteria (Staphylococcus aureus ATCC 29213 and clinical isolate, Escherichia coli ATCC 25922 and clinical isolate, Pseudomonas aeruginosa ATCC 27853 and clinical isolate, Streptococcus agalactiae ATCC 12386 and clinical isolate, Streptococcus pneumoniae ATCC 49619) and three fungi (Candida krusei ATCC 6258, Candida parapsilosis ATCC 22019, and Candida albicans clinical isolate). Details regarding these strains are available in Supplementary Table 4 . The antimicrobial activity of cathelicidins was determined as the minimum inhibitory concentration (MIC), which was the lowest concentration of cathelicidin that prevented visible bacterial or fungal growth, relative to the negative control. […]
Antimicrobial activity was determined using a broth microdilution susceptibility assay in 96 well polypropylene plates according to Clinical Laboratory Standards Institute guidelines M07-A and M26A as described previously ([33], [42], [43]). […]

[9] = test system: Staphylococcus aureus clinical isolate - animal; assay: microbe, parasite or virus in culture; format: cell-based; conditions: clinical isolate - animal; read-out: MIC S. aureus
Outline: as §1

[10] = test system: Pseudomonas aeruginosa ATCC 27853; assay: microbe, parasite or virus in culture; format: cell-based; conditions: ATCC 27853; read-out: MIC P. aeruginosa ATCC
Outline: as §1

[11] = test system: Escherichia coli clinical isolate - animal; assay: microbe, parasite or virus in culture; format: cell-based
Outline: as §1

[12] = test system: Staphylococcus aureus ATCC 29213; assay: microbe, parasite or virus in culture; format: cell-based; conditions: ATCC 29213; read-out: MIC S. aureus ATCC
Outline: as §1

[13] = test system: Pseudomonas aeruginosa clinical isolate - animal; assay: microbe, parasite or virus in culture; format: cell-based; conditions: clinical isolate - animal; read-out: MIC P. aeruginosa
Outline: as §1

[14] = test system: Escherichia coli ATCC 25922; assay: microbe, parasite or virus in culture; format: cell-based
Outline: as §1

[15] = in vivo; cited from earlier work
[16] = test system: bacterial and fungal infections in chemotherapy patients; conditions: human, in vivo; cited from earlier work

Molecule: KRGGIWKLIRPLGRGAGRILRHFHIDFCGNC [PhciCath5, koala cathelicidin, reference compound]
- Killing of Chlamydia (Chlamydia): killed Chlamydia in vitro
- Antibacterial (MIC <64ug/mL) [1]: Y (Peel et al 2021) (Antibacterial (MIC <64ug/mL))
- Antifungal (MIC <64ug/mL) [2]: Y (Peel et al 2021) (Antifungal (MIC <64ug/mL))

Molecule: CC[C@H](C)[C@H](NC(=O)[C@H](CCCNC(=N)N)NC(=O)[C@H](CCCNC(=N)N)NC(=O)[C@@H]1CCCN1C(=O)[C@H](CC(N)=O)NC(=O)[C@H](CS)NC(=O)[C@H](CCCCN)NC(=O)[C@H](CCCNC(=N)N)NC(=O)[C@@H](NC(=O)[C@H](CC(C)C)NC(=O)[C@H](CC(C)C)NC(=O)[C@H](CS)NC(=O)[C@H](CCCNC(=N)N)NC(=O)[C@H](CCCCN)NC(=O)[C@H](CCCNC(=N)N)NC(=O)[C@H](CCCCN)NC(=O)[C@H](Cc1ccccc1)NC(=O)[C@H](CCCNC(=N)N)NC(=O)[C@H](CC(C)C)NC(=O)[C@@H]1CCCN1C(=O)[C@H](CCC(=O)O)NC(=O)[C@@H]1CCCN1)[C@@H](C)O)C(=O)N[C@H](C(=O)N[C@@H](Cc1ccccc1)C(=O)N[C@@H](CO)C(=O)N[C@@H](CC(C)C)C(=O)N[C@@H](CC(C)C)C(=O)N[C@@H](CCCCN)C(=O)NCC(=O)N[C@@H](CCCCN)C(=O)O)[C@@H](C)O [TrvuCath2] (H-PEPLRFKRKRCLLTRKCNPRRITFSLLKGK-OH; N-terminus and C-terminus assumed)
- Antibacterial (MIC <64ug/mL) ([3]; broth microdilution screening, phase I or II, Y/N summary over the bacteria tested): Y (Antibacterial (MIC <64ug/mL))
- MIC [4]: >17.5 µM
- MIC [5]: >17.5 µM
- MIC [6]: >17.5 µM
- Antifungal (MIC <64ug/mL) ([7]; broth microdilution screening, phase I, Y/N summary over the fungi tested): N (Antifungal (MIC <64ug/mL))
- Antimicrobial activity in the assays [8]: displayed activity
- MIC [9]: >17.5 µM
- MIC [10]: >17.5 µM
- MBC E. coli ([11]; clinical isolate - animal): 17.5 (17.5)^17.5 µM
- MIC E. coli ([11]; clinical isolate - animal): 17.5 (17.5)^17.5 µM
- MIC in the presence of cations E. coli ([11]; clinical isolate - animal): 17.5 (17.5)^17.5 µM
- MIC E. coli ([11]; clinical isolate, MHB without cations, 5 x 10^5 CFU/mL, 35°C 20–24 hours, duplicate): 64 (64)^64 µg/mL
- MIC in the presence of cations E. coli ([11]; clinical isolate, superscript value, cation-adjusted Mueller Hinton broth): 64 (64)^64 µg/mL
- MBC E. coli ([11]; clinical isolate, value in brackets, 99.9% reduction in CFU/mL): 64 (64)^64 µg/mL
- MIC [12]: >17.5 µM
- MIC [13]: >17.5 µM
- MBC E. coli ATCC ([14]; ATCC 25922): 17.5 (17.5)^17.5 µM
- MIC E. coli ATCC ([14]; ATCC 25922): 17.5 (17.5)^17.5 µM
- MIC in the presence of cations E. coli ATCC ([14]; ATCC 25922): 17.5 (17.5)^17.5 µM
- MIC E. coli ATCC ([14]; MHB without cations, 5 x 10^5 CFU/mL, 35°C 20–24 hours, duplicate): 64 (64)^64 µg/mL
- MIC in the presence of cations E. coli ATCC ([14]; superscript value, cation-adjusted Mueller Hinton broth): 64 (64)^64 µg/mL
- MBC E. coli ATCC ([14]; value in brackets, 99.9% reduction in CFU/mL): 64 (64)^64 µg/mL

Molecule: iseganan
- Clinical outcomes in ventilator-associated pneumonia [15]: no difference was observed between treated or placebo groups
- Bacterial and fungal infections in oral mucositis patients [16]: significantly reducing bacterial and fungal infections

Molecule: RFKRSLSDGVIDTSSLPPRIRDIYLQAKYDIISRILRN [MAP1, marsupial ancestral peptide 1, predicted ancestral cathelicidin of the NGP clade]
- Antibacterial (MIC <64ug/mL) ([3]; antimicrobial screening Phase I, Y/N summary over bacteria tested, broth microdilution): N (Antibacterial (MIC <64ug/mL))
- Antifungal (MIC <64ug/mL) ([7]; antimicrobial screening Phase I, Y/N summary over fungi tested, broth microdilution): N (Antifungal (MIC <64ug/mL))
- Antimicrobial activity in the assays [8]: none displayed antimicrobial activity
